Test results: patent US20050208037A1, “Thioredoxin increases redox-cycling of anticancer agents thereby sensitizes cancer cells to apoptosis” (Board of Regents, The University of Texas System, priority 2003, published 2005)
Counter-ions that a name gives are not always drawn.

What was measured:
[1] = biological target: T1, cytochrome P450 reductase (Oryctolagus cuniculus, UniProt P00389); assay: Cytochrome P450 reductase mediated SOD-inhibitable superoxide generation; assay type: biochemical, rabbit; settings: 10 μM doxorubicin, Trx-SH alone as electron donor, absence of NADPH
T1 construct: purchased Sigma Chemicals (St. Louis, Mo.); host or cells: rabbit liver
T1 sequence (P00389 1-679): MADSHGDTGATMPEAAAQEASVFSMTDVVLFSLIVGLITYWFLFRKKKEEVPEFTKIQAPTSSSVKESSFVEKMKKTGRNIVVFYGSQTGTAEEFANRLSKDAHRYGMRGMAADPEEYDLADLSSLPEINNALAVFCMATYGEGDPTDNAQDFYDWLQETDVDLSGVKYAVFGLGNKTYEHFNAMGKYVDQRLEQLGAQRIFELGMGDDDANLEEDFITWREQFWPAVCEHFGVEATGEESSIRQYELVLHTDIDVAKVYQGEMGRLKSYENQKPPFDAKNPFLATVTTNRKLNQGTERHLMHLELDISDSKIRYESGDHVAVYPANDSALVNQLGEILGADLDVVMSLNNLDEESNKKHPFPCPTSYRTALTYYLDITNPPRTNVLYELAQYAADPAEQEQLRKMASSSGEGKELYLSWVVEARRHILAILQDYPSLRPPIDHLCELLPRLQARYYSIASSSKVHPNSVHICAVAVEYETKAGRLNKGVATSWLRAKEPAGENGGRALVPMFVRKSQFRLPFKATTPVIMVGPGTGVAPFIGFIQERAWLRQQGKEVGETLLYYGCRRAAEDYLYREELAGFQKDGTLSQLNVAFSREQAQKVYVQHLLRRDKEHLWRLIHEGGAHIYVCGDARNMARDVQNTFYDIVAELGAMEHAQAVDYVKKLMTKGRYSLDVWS
Method: Superoxide detection by cytochrome c reduction assay. Superoxide (O2—) generated in the process of redox-cycling was detected by SOD inhibitable rate of ferricytochrome c reduction (Das et al., 2000). […] Reaction blank contained potassium phosphate buffer, cytochrome c and NADPH with or without SOD, and controls included 0.35-0.7 μg TR and /or Trx in buffer. All reactions were performed in triplicate.

[2] = cited from earlier work
[3] = biological target: T2, E. coli thioredoxin reductase-thioredoxin system (Escherichia coli, UniProt P0A9P4); assay: Superoxide detection by cytochrome c reduction assay with thioredoxin system; assay type: biochemical
T2 construct: purchased American Diagnostica Inc (thioredoxin reductase); Promega Inc (thioredoxin)
Method: Superoxide detection by cytochrome c reduction assay. Superoxide (O2—) generated in the process of redox-cycling was detected by SOD inhibitable rate of ferricytochrome c reduction (Das et al., 2000). The reaction mixture contained 0.05 M potassium phosphate buffer (pH 7.78), 1 mM EDTA, 10 μM cytochrome c and 200 μM NADPH. […] The rate of […] of cytochrome c was measured at 550 nm for 0-15 minutes using Shimadzu UV-1601PC in kinetic mode. Reaction blank contained potassium phosphate buffer, cytochrome c and NADPH with or without SOD, and controls included 0.35-0.7 μg TR and /or Trx in buffer. All reactions were performed in triplicate.

[4] = test system: Trx9 cells (MCF-7 clones expressing thioredoxin); assay: In situ detection of ROS by DCF-DA fluorescence; assay type: cell-based, human; settings: Trx9 compared to vector cells
Method: In situ detection of superoxide by fluorescent probe DiCarboxyFluorescein-DiAcetate (DCF-DA). Cells were grown in chambered glass slides (Nunc) to a final density of 25,000 cells per well.

E. coli thioredoxin = biological target: T3, E. coli thioredoxin (Escherichia coli, UniProt P0AA25); assay: Thioredoxin redox state by carboxymethylation and western analysis; assay type: biochemical; settings: TR and doxorubicin
T3 construct: purchased Promega Inc (thioredoxin); American Diagnostica Inc (thioredoxin reductase)
Method: Carboxymethylation of thioredoxin. In order to analyze the possible role of thioredoxin in the redox-cycling of anthracyclines the redox status of thioredoxin was determined by carboxymethylation at the end of assay. Carboxymethylation was done as described previously (Das et al., 1997). Equal volume of carboxymethylation buffer (0.1 M Tris; pH 8.8, 12 mg/ml iodoacetic acid, 3 mM EDTA, 7 M guanidine hydrochloride, and 0.5% Triton X-100, equilibrated with nitrogen for 1 h) was added and incubated at 37° C. in the dark for 45 min. After incubation the excess reagent was removed using Sephadex G-25 spin column, and the elute was used for western blot detection of thioredoxin.
Western analysis of thioredoxin redox state. […] The protein was transferred to PVDF membrane using a miniprotein transblot apparatus (Bio-Rad). The PVDF membrane was washed and incubated with mouse anti-E. coli Trx IgG (MBL, Nagoya, Japan). After washing, the blot was incubated with anti Mouse IgG- horseradish peroxidase conjugate for 1 h at room temperature. Binding of secondary antibody was detected using an enhanced chemiluminescence (ECL Plus) detection system (Amersham Pharmacia Biotech, Piscataway, N.J.). Western blot was quantified using densitometric analysis software (NIH Image 1.61).

[5] = test system: Trx9 cells (MCF-7 clones expressing thioredoxin); assay: Superoxide production in cell lysate by SOD-inhibitable reduction of ferricytochrome c; assay type: biochemical, human; settings: Trx9 compared to vector-transfected cells; 10 μM drug
Method: Determination of superoxide production by reduction of ferricytochrome c. Superoxide production was measured as superoxide dismutase (SOD) inhibitable reduction of ferricytochrome c (Azzi et al. 1975). Cells were sonicated in potassium phosphate buffer (0.05M, pH 7.8 plus 1 mM EDTA), centrifuged and the supernatant was used for the assay. To determine the superoxide generation in the cell lysate, the supernatant was incubated with 10 μM drug and 10 μM cytochrome c, with or without 1U SOD to determine SOD inhibitable rate. The specificity of thioredoxin mediated superoxide generation in the supernatant was detected by pre-incubation of cell lysates with anti-human thioredoxin antibody (American Diagnostica, Greenwich, Conn.) for 15 min. All reactions were performed in triplicate. The reduction of ferricytochrome c was measured both in kinetic and end point mode with path check on for 1 hr duration at a wavelength of 550 nm using a Spectramax 190 plate reader (Molecular Devices). Total protein was quantified using Bradford protein assay (Biorad) and the superoxide generation was determined per milligram of protein in the extracts.

A549 cells [6] = assay: ROS detection by DCF-DA fluorescence; assay type: cell-based, human
Method: In situ detection of superoxide by fluorescent probe DiCarboxyFluorescein-DiAcetate (DCF-DA). […] Cells were pre-incubated with 20 μM DCF-DA (Sigma, St. Louis, Mo.) in 20 mM Hepes in Phosphate Buffered Saline (PBS) containing bovine serum albumin (BSA, 5 mg/ml) at 37° C. for 30 min followed by washing with PBS buffer, and the drug was added and observed for 10-15 min in a Nikon laser confocal microscope using laser beam wavelength 488 nm analyzed by Ultraview software (Perkin-Elmer).

[7] = biological target: T4, human thioredoxin reductase (Homo sapiens, UniProt Q16881); settings: cited from earlier work
T4 sequence (Q16881 151-649 limits assumed): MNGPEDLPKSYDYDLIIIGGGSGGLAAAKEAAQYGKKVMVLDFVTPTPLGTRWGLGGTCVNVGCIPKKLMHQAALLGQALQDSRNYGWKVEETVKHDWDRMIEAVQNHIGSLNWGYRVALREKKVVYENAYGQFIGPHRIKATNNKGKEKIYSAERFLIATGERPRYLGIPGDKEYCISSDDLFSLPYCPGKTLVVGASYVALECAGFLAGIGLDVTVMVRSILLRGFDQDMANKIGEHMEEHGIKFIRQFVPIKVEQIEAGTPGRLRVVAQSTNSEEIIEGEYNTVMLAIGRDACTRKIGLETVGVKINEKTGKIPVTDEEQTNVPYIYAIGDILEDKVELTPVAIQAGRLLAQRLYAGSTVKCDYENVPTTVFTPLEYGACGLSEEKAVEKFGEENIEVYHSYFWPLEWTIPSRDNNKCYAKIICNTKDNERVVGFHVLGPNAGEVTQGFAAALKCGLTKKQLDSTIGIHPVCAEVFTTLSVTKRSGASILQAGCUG

p53 in A549 cells = assay: EMSA of p53 DNA binding; assay type: cell-based, human; settings: E. coli Trx 32 μM 16 h followed by daunomycin 1 μM 4 h
Method: Nuclear Extract preparation. Nuclear extract was prepared as described previously (Das, 2001). […] The extracts were then centrifuged at 14,000 rpm for 25 min and the supernatant was saved as nuclear extract in −70° C. for further experiments. Protein was quantified using Bradford protein assay (Biorad).
Electrophoretic Mobility shift assay (EMSA). For the EMSA the p53 consensus oligonucleotide was obtained from Genosys 5′-[…]-3′ (SEQ ID NO:9) and end labeled using T4 Poly nucleotide kinase (New England Biolabs, Beverly, Mass.) and [γ-^32P] ATP (Perkin Elmer, Boston, Mass.) in 10× kinase buffer supplied with the enzyme. […] The nuclear protein was separated by electrophoresis using 4% native polyacrylamide gel and 0.25× of TBE (Tris-Borate-EDTA) as running buffer. The gels were dried and exposed to Kodax Biomax X-ray film overnight.

A549 cells [8] = settings: E. coli thioredoxin 32 μM 16 hr followed by daunomycin 1 μM 4 hr
Excerpt: TUNEL assay. Apoptotic cells were detected using In Situ Cell Death detection, POD kit (Roche Molecular Biochemicals, Indianapolis, Ind.). Apoptotic DNA strand breaks were identified by labeling 3′-OH termini with fluorescein-dUTP using Terminal deoxy Transferase as per manufacturer's protocol. For this assay cells were allowed to adhere overnight in chambered glass slides (Nunc) to a final density of 25,000 cells per well. Followed by treatment with the appropriate concentration of drugs the media was removed and washed twice with PBS containing 1% BSA and the cells fixed in 4% paraformaldehyde for 30 min and washed with PBS containing 1% BSA. The cells were then permeabilized with 0.1% Triton X-100 in 0.1% sodium citrate for 2 min on ice and washed twice with PBS containing 1% BSA. The labeling reaction was performed using FITC labeled dUTP along with other nucleotides by terminal deoxynucleotidyl transferase for 60 mins in dark at 37° C. in humidified chamber. The cells were washed with PBS-1% BSA, mounted onto a slide, and the incorporated fluorescein-dUTP was analyzed using Nikon laser confocal microscope.

T2 sequence (P0A9P4 2-321): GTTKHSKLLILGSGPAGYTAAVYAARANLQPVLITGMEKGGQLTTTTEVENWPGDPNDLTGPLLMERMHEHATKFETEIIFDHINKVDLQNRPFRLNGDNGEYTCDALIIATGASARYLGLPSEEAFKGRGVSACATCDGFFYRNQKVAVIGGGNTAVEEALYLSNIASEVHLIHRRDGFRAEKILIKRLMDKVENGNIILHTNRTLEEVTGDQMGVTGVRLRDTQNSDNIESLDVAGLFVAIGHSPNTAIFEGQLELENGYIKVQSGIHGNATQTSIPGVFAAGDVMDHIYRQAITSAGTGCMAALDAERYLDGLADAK
T3 sequence (P0AA25 2-109): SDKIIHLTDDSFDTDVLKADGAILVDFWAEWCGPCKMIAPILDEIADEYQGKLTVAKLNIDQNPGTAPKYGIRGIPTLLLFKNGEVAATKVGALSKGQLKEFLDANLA

Compound	SOD inhibitable O2— generation [1]	excreted into the urine ([2]; in vivo)	elimination half-life ([2]; intravenous)	absorption ([2]; oral)	levels of O2— generated ([3]; drug 10 μM with thioredoxin reductase alone)	SOD inhibitable rate of ferricytochrome c reduction ([3]; drug alone, 10 μM)	rate of superoxide generation as compared to daunomycin ([3]; thioredoxin reductase alone or thioredoxin reductase-thioredoxin system, 10 μM drug)	DCF-DA fluorescence (oxidation of DCF-DA) [4]	level of Trx-S2 (oxidized thioredoxin) (E. coli thioredoxin; 28.7% without doxorubicin)	level of reduced thioredoxin (E. coli thioredoxin; Trx, 71.3% in thioredoxin-thioredoxin reductase system only)	O2— production [5]	ROS generation (DCF-DA) (A549 cells [6]; E. coli thioredoxin only (32 μM, 16 hr))	ROS generation (DCF-DA) (A549 cells [6]; pretreated with E. coli thioredoxin (32 μM, 16 hr) followed by 1 μM daunomycin)	levels of O2— generated ([3]; addition of 3.2 μM Trx to thioredoxin reductase with daunomycin or doxorubicin)	rate of O2— generation with doxorubicin ([3]; thioredoxin from 1.6 to 6.4 μM, 0.35 μg thioredoxin reductase, 10 μM doxorubicin)	Km as a substrate for human thioredoxin reductase [7]	p53 DNA binding (p53 in A549 cells)	TUNEL positive nuclei (A549 cells [8])
COc1cccc2c1C(=O)c1c(O)c3c(c(O)c1C2=O)C[C@@](O)(C(=O)CO)C[C@@H]3O[C@H]1C[C@H](N)[C@H](O)[C@H](C)O1 [doxorubicin, 5,12-Naphthacenedione, (8 s-cis)-10-[(3-amino-2,3,6-trideoxy-a-L-lyxo-hexopyranosyl)oxy]-7,8,9,10-tetrahydro-6,8,11-trihydroxy-8-(hydroxyacetyl)-1-methoxy-hydrochloride]	generated O2—	a few percent	about 30 hr	poorly absorbed	significantly higher levels of O2—	did not show significant level	two fold increase	enhanced fluorescence	53%	47%	significantly higher level of O2—							
E. coli thioredoxin: E. coli thioredoxin obtained from Promega; sequence of SEQ ID NO:4												No ROS were detected	significantly higher level of ROS generation	further enhanced the levels of O2—	proportional increase in the rate of O2— generation	35 µM	increased p53 DNA binding	increase in TUNEL positive nuclei
